Assays:
Type in all cases: cell-based
[1] = test system: HIV-1 NL4.3 (or IIIB, CXCR4 using); experiment: Inhibition of HIV-1 (NL4.3) replication in MT-4 cells; details: Human immunodeficiency virus 1, IIIB, MT4, 120 h, MTT viability after 5 days
Experimental: Assay for Inhibition of HIV-1 (NL4.3) Replication in MT-4 Cells. Inhibition of HIV-1 NL4.3 (or IIIB, CXCR4 using) replication assays were performed as previously described (Bridger et al. J. Med. Chem. 1999, 42, 3971-3981; De […] et al. Proc. Natl. Acad. Sci, 1992, 89, 5286-5290; De […] et al. Antimicrob. Agents Chemother. 1994, 38, 668-674; Bridger et al. J. Med. Chem. 1995, 38, 366-378; Schols et al. J. Exp. Med., 1997, 186, 1383-1388). Anti-HIV activity and cytotoxicity measurements were carried out in parallel. They were based on the viability of MT-4 cells that had been infected with HIV in the presence of various concentrations of the test compounds. After the MT-4 cells were allowed to proliferate for 5 days, the number of viable cells was quantified by a tetrazolium-based colorimetric 3-(4,5-dimethylthiazol-2-yl)-2,5-diphenyltetrazolium bromide (MTT) procedure in 96-well microtrays. In all of these assays, viral input (viral multiplicity of infection, MOI) was 0.01, or 100 times the 50% cell culture infective dose (CCID50). The EC50 was defined as the concentration required to protect 50% of the virus-infected cells against viral cytopathicity. When compounds of the current invention are tested for inhibition of HIV-1 NL4.3 or IIIB replication in MT-4 cells, all show inhibition.

[2] = test system: SDF-1α induced Ca flux in SUP-T1 cells; experiment: Inhibition of chemokine (SDF-1α) induced Ca flux measured on a FLIPR; details: Homo sapiens, at 20 μg/mL
Experimental: Inhibition of Chemokine Induced Ca Flux Measured on a FLIPR (Molecular Devices) Loading dye: Fluo-3, AM (Molecular Probes F-1241) is dissolved in anhydrous DMSO and stored frozen in aliquots. To increase the solubility of the dye in the loading medium, 10% (w/v) pluronic acid (Molecular Probes F-127) is added to the Fluo-3 stock solution immediately before use. buffer+0.2% BSA, pH 7.4. HBSS 10× [(w/o phenol red and sodium bicarbonate (Gibco 14 065-049)]; Hepes buffer 1M (Gibco 15 630-056), BSA (Sigma A3675). The flux buffer is vacuum-filtered and stored refrigerated for a maximum of 5 days. Before use in the experiment, the buffer is warmed at 37° C. in a waterbath. The test compounds were diluted in flux buffer at the desired concentration and added to 4 wells of a black microplate (4 parallel measurements per compound). The following control wells were used: 100% response control (no inhibition), flux buffer was added; 100% inhibition control: chemokine was added at 5-times the concentration required to induce a Ca flux. The chemokines are diluted in flux buffer to concentrations that are 4-fold higher than the desired concentrations required for stimulation of the cells (i.e. 2.5 nM for SDF-1α and 0.6 nM for RANTES). The chemokines were added to untreated 96-well Sero well compound plates (International Medical, Sterilin code 611F96). In the negative control well's (baseline monitoring), flux buffer is added instead of chemokine. As a positive control to check for dye loading efficiency, 20 μM digitonin (final concentration) was also included. The agonist plate was incubated in the FLIPR (37° C.) for 15-30 min. Cell Loading Protocol for Measuring Inhibition of SDF-1α Induced Ca Flux in SUP-T1 Cells. SUP-T1 cells were centrifuged at room temperature (RT) and re-suspended in loading medium (RPMI-1640 containing 2% FBS and 4 μM Fluo-3, AM). The cells were incubate at room temperature for 45 min. then washed twice in flux buffer then incubated in flux buffer at room temperature for 10 min. The cells were centrifuged and re-suspended in flux buffer at a density of 3×10^6 cells per mL. A 100 μL aliquot of the cell suspension (3×10^5 cells) was added to each well of a black microplate (Costar 3603), which already contains 50 μL of a solution of the test compound (at concentrations that are 3-fold higher than the desired final compound concentrations). The microplate is then gently centrifuged at room temperature. Homogeneous spreading of the cells on the bottom of the microplate wells was then confirmed with a microscope and the microplate was incubated in the FLIPR (37° C.) for 10 min. prior to testing. The FLIPR settings (camera exposure time and laser power) are adjusted to obtain initial fluorescence values between 8,000 and 10,000 units. After monitoring a 20 second-baseline, the agonist (chemokine) (50 μL) is added by automatic pipettor with black pipette tips. Fluorescence is measured simultaneously in all wells of the microplate every 2 seconds (first 2 min) and thereafter every 6 seconds (additional 2 min). The average ca-flux measured in each set of 4 identical wells (one test compound) was calculated by the FLIPR software. The compounds of the current invention are tested for inhibition of SDF-1α induced Ca flux in SUP-T1 cells using the method described above.

HIV-1 BaL (CCR5 using) = experiment: Inhibition of HIV-1 (BaL) replication in PBMC's; details: Human immunodeficiency virus 1, BAL, PHA-stimulated PBMC's, viral p24 antigen expression
Experimental: Assay for Inhibition of HIV-1 (BaL) Replication in PBMC's. When compounds of the current invention are tested for inhibition of HIV-1 BaL (CCR5 using) replication in PHA-stimulated PBMC's (peripheral blood mononuclear cells) using viral p24 antigen expression (De […] et al. Antimicrob. Agents Chemother. 1994, 38, 668-674; Schols et al. J. Exp. Med., 1997, 186, 1383-1388), all show inhibition.

O=C(Nc1ccc(CN(Cc2nc3ccccc3[nH]2)C2CCCc3cccnc32)cc1)c1ccccn1 (centres unmarked) [Example 45, pyridine-2-carboxylic acid (4-{[(1 H-benzoimidazol-2-ylmethyl)-(5,6,7,8-tetrahydro-quinolin-8-yl)-amino]-methyl}-phenyl)-amide]
EC50 [1]: < 20 µg/mL
inhibition at 20 µg/mL [2]: > 20%

O=S(=O)(NCc1ccccn1)c1ccc(CN(Cc2nc3ccccc3[nH]2)C2CCCc3cccnc32)cc1 (centres unmarked) [Example 11, 4-{[(1 H-Benzimidazol-2-ylmethyl)-(5,6,7,8-tetrahydro-quinolin-8-yl)-amino]-methyl}-N-pyridin-2-ylmethyl-benzenesulfonamide]
EC50 [1]: < 20 µg/mL
EC50 (HIV-1 BaL (CCR5 using)): < 20 µg/mL
inhibition at 20 µg/mL [2]: > 20%

O=C(NCc1ccc(CNC2CCCc3cccnc32)cc1)c1ccccn1 (centres unmarked) [Example 16, Pyridine-2-carboxylic acid 4-[(5,6,7,8-tetrahydro-quinolin-8-ylamino)-methyl]-benzeylamide]
EC50 (HIV-1 BaL (CCR5 using)): < 20 µg/mL

O=C(NCc1ccc(CN(Cc2nc3ccccc3[nH]2)C2CCCc3cccnc32)cc1)c1ccccn1 (centres unmarked) [Example 17, Pyridine-2-carboxylic Acid 4-{[(1 H-benzimidazol-2-ylmethyl)-(5,6,7,8-tetrahydro-quinolin-8-yl)-amino]-methyl}-benzylamide]
EC50 [1]: < 20 µg/mL
EC50 (HIV-1 BaL (CCR5 using)): < 20 µg/mL
inhibition at 20 µg/mL [2]: > 20%

O=S(=O)(NCc1ccc(CN(Cc2nc3ccccc3[nH]2)C2CCCc3cccnc32)cc1)c1ccccn1 (centres unmarked) [Example 48, Pyridine-2-sulfonic Acid 4-{[(1 H-benzoimidazol-2-ylmethyl)-(5,6,7,8-tetrahydro-quinolin-8-yl)-amino]-methyl}-benzylamide]
EC50 [1]: < 20 µg/mL
EC50 (HIV-1 BaL (CCR5 using)): < 20 µg/mL
inhibition at 20 µg/mL [2]: > 20%

O=C(Nc1ccccn1)c1ccc(CN(Cc2nc3ccccc3[nH]2)C2CCCc3cccnc32)cc1 (centres unmarked) [Example 2, 4-{[(1 H-Benzimidazol-2-ylmethyl)-(5,6,7,8-tetrahydroquinolin-8-yl)amino]-methyl}-N-pyridin-2-yl-benzamide]
EC50 [1]: < 20 µg/mL
EC50 (HIV-1 BaL (CCR5 using)): < 20 µg/mL
inhibition at 20 µg/mL [2]: > 20%

O=S(=O)(Nc1ccc(CN(Cc2nc3ccccc3[nH]2)C2CCCc3cccnc32)cc1)c1ccccn1 (centres unmarked) [Example 53, Pyridine-2-sulfonic acid (4-{[(1H-benzoimidazol-2-ylmethyl)-(5,6,7,8-tetrahydro-quinolin-8-yl)-amino]-methyl}-phenyl)-amide]
EC50 [1]: < 20 µg/mL
EC50 (HIV-1 BaL (CCR5 using)): < 20 µg/mL

O=C(NCc1ccccn1)c1ccc(CN(Cc2nc3ccccc3[nH]2)C2CCCc3cccnc32)cc1 (centres unmarked) [Example 4, 4-{[(1 H-Benzimidazol-2-ylmethyl)-(5,6,7,8-tetrahydro-quinolin-8-yl)-amino]-methyl}-N-pyridin-2-ylmethyl-benzamide]
EC50 [1]: < 20 µg/mL
EC50 (HIV-1 BaL (CCR5 using)): < 20 µg/mL
inhibition at 20 µg/mL [2]: > 20%
